Assay results published in US20230265483A1, “METHODS FOR TESTING ANDEXANET POTENCY” (Alexion Pharmaceuticals, Inc., priority 2020, published 2023).

Key:
[1] = molecular target: T1, bovine fXa (BFXa) (Bos taurus, UniProt P00743); test: Inhibition of bovine fXa by betrixaban; format: biochemical; details: in words
T1 construct: purchased Hyphen BioMed (France) BE1010/BE101K

[2] = molecular target: T2, BFXa (Bos taurus, UniProt P00743); test: Direct potency assay with BFXa/betrixaban mixture; format: biochemical, bovine; details: BFXa (1×)/betrixaban (1×) vs HFXa (1×)/betrixaban (1×), no andexanet
T2 construct: purchased Hyphen BioMed (France) BE1010/BE101K
T2 sequence (P00743 234-492 limits assumed): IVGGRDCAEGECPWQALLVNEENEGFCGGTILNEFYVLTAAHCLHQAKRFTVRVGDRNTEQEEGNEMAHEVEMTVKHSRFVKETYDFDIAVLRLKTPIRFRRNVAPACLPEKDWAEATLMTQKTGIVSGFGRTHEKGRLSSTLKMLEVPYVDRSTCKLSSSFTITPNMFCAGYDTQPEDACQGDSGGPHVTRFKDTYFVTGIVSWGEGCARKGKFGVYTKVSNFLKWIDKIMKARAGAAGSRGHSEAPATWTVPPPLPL
T2 sequence (P00743 41-180 partner limits assumed): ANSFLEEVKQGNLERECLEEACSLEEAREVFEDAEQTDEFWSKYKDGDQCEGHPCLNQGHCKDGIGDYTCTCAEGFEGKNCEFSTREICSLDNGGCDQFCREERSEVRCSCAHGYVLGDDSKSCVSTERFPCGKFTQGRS
Procedure: The stock solutions for HFXa, BFXa and betrixaban were first prepared separately. FXa/betrixaban mixture was prepared by mixing different volumes of the stock solutions of FXa and betrixban, resulting in HFXa/betrixaban or BFXa/betrixaban. The FXa/betrixaban mixture (50 μL) was added to the reaction mixture as described in the direct potency assay. The HFXa (1×)/betrixaban (1×) mixture (O) was used as a control.
Preparation of fXa and Betrixaban (fXa Inhibitor) • a) Dilute the fXa to 50 μg/mL then further dilute to 1.0 μg/mL in assay buffer. • b) Dilute fXa inhibitor (226 μg/mL betrixaban stock) to 40 ng/mL in assay buffer as described in the table below. • c) Add equal volumes of diluted fXa and fXa inhibitor (betrixaban) into an appropriate container by combining 6 mL of FXa at 1.0 μg/mL and 6 mL of fXa inhibitor at 40 ng/mL. Mix well. • 4. Preparation of fXa and fXa Inhibitor Controls • a) Prepare the fXa control by mixing 100 μL of diluted fXa with 300 μL of assay buffer. • b) Prepare fXa inhibitor (betrixaban) control by mixing 200 μL of the fXa inhibitor mixture and 200 μL assay buffer. • 5. Transfer 50 μL/well of reference standard (RS), assay control (CTRL) and test samples (TS) to the assay plate. • 6. […] Read the microplate at 405 nm as the test wavelength and 490 nm as the reference wavelength. • 14. […]

T1 sequence (P00743 234-492 limits assumed): as the sequence (P00743 234-492 limits assumed) above
T1 sequence (P00743 41-180 partner limits assumed): as the sequence (P00743 41-180 partner limits assumed) above

In the case of `COc1ccc(NC(=O)c2ccc(C(=N)N(C)C)cc2)c(C(=O)Nc2ccc(Cl)cn2)c1` [betrixaban], the “potency of inhibition of bovine fXa compared with human fXa” value [1] is reported as “less potent” and the “inhibition of BFXa activity (background in absence of andexanet)” value [2] is reported as “less inhibition of BFXa activity”.
